Results from patent US10646454B2, “Microcell delivery systems including charged or magnetic particles for regulating rate of administration of actives” (E INK CALIFORNIA, LLC, priority 2017, dated 2020).
Like-named read-outs stand apart in the source and are kept apart here.

Details: for release profile: versus control, FIG. 12
Method: Two layers of dialysis tubing (Thermo-Fisher, Waltham, Mass.) were cut to fit across the opening at the joint of the Franz cell. For control measurements, 500 μL of a 1.3 mg/mL solution of nicotine in D.I. water was pipetted into the top of the cell. Samples were removed from the receptor cell at various time points as indicated in the graph in FIG. 12.
Subsequent experiments added small amounts of polymer-coated carbon nanoparticles between the two layers of dialysis tubing. The overall coverage was approximated by taking a photograph of the combined double layer nanoparticle sandwich from the top and assessing the darkness of the layer. […] For approximately 35% coverage [circles] and for full (100%) coverage [triangles], a sample of 500 μL of a 1.3 mg/mL solution of nicotine in D.I. water was pipetted into the top of the cell and samples were removed at various time points.

CN1CCCC1c1cccnc1 (stereo not drawn) [nicotine]
release profile (approximately 35% coverage with polymer-coated carbon nanoparticles between two layers of dialysis tubing): very similar to the control
reduction in the total nicotine delivered over 24 hours (full (100%) coverage with polymer-coated carbon nanoparticles between two layers of dialysis tubing, versus control without particles, 500 μL of 1.3 mg/mL nicotine in D.I. water): 50%
release profile (full (100%) coverage with polymer-coated carbon nanoparticles between two layers of dialysis tubing): sizeable difference
